The assay has as its system PABPC1 PABC. It counts as binding, human. The following applies: DMS-BM library, bait PABPC1 PABC, row aa = residue at this position; for DMS-derived PSSM value, position E10: E = wild type; for DMS-derived PSSM value, position N5 / DMS-derived PSSM value, position N7 / DMS-derived PSSM value, position N12: N = wild type.
The mark [1] stands for this setting: prey ATXN2, peptide KSTLNPNAKEFNPRSF, F = wild type.
Setting [2] is: prey ATXN2, peptide KSTLNPNAKEFNPRSF, P = wild type.
[3] abbreviates: prey ATXN2, peptide KSTLNPNAKEFNPRSF
Where [4] appears, read: prey ATXN2, peptide TLNPNAKEFNPRSFSQ, F = wild type.
The mark [5] stands for this setting: prey ATXN2, peptide KSTLNPNAKEFNPRSF, A = wild type.
Setting [6] is: prey ATXN2, peptide TLNPNAKEFNPRSFSQ, K = wild type.
Setting [7] is: prey ATXN2, peptide TLNPNAKEFNPRSFSQ, S = wild type.

Like-named read-outs stand apart in the source and are kept apart here.

Regarding “KSTLNPNAKEFNPRSF F16A (KSTLNPNAKEFNPRSA)”, the “DMS-derived PSSM value, position F16” value under setting [1] stood at 0.08044.
Consider “KSTLNPNAKEFNPRSF F11Y (KSTLNPNAKEYNPRSF)”, for which, under setting [1], the “DMS-derived PSSM value, position F11” value was 0.3016.
Consider “KSTLNPNAKEFNPRSF P13Y (KSTLNPNAKEFNYRSF)”, for which, under setting [2], the “DMS-derived PSSM value, position P13” value stood at 0.004042.
Regarding “KSTLNPNAKEFNPRSF E10Q (KSTLNPNAKQFNPRSF)”, the “DMS-derived PSSM value, position E10” value under setting [3] was 0.
As for KSTLNPNAKEFNPRSF L4P (KSTPNPNAKEFNPRSF), the “DMS-derived PSSM value, position L4” value (prey ATXN2, peptide KSTLNPNAKEFNPRSF, L = wild type) was 0.
For the substance KSTLNPNAKEFNPRSF N5V (KSTLVPNAKEFNPRSF), the “DMS-derived PSSM value, position N5” value under setting [3] came out at 0.
Consider KSTLNPNAKEFNPRSF N7S (KSTLNPSAKEFNPRSF), for which the “DMS-derived PSSM value, position N7” value under setting [3] was 0.04398.
In the case of “KSTLNPNAKEFNPRSF F16V (KSTLNPNAKEFNPRSV)”, the “DMS-derived PSSM value, position F16” value under setting [1] was 0.175.
In the case of TLNPNAKEFNPRSFSQ F9R (TLNPNAKERNPRSFSQ), under setting [4], the “DMS-derived PSSM value, position F9” value stood at 0.
For the substance “TLNPNAKEFNPRSF(averaged) K7W (TLNPNAWEFNPRSF)”, under “prey ATXN2, TLNPNAKEFNPRSF(averaged) over the two overlapping peptides, K = wild type”, the “DMS-derived PSSM value (averaged), position K7” value worked out at 0.01767.
As for KSTLNPNAKEFNPRSF A8V (KSTLNPNVKEFNPRSF), under setting [5], the “DMS-derived PSSM value, position A8” value came out at 0.4196.
“KSTLNPNAKEFNPRSF N12D (KSTLNPNAKEFDPRSF)”: the “DMS-derived PSSM value, position N12” value under setting [3] is listed as 0.009433.
As for “TLNPNAKEFNPRSF(averaged) F9S (TLNPNAKESNPRSF)”, the “DMS-derived PSSM value (averaged), position F9” value (prey ATXN2, TLNPNAKEFNPRSF(averaged) over the two overlapping peptides, F = wild type) stood at 0.
On to TLNPNAKEFNPRSFSQ L2M (TMNPNAKEFNPRSFSQ), for which the “DMS-derived PSSM value, position L2” value (prey ATXN2, peptide TLNPNAKEFNPRSFSQ, L = wild type) is 0.1261.
For TLNPNAKEFNPRSFSQ K7R (TLNPNAREFNPRSFSQ), the “DMS-derived PSSM value, position K7” value under setting [6] amounted to 0.00234.
Take TLNPNAKEFNPRSFSQ A6D (TLNPNDKEFNPRSFSQ): the “DMS-derived PSSM value, position A6” value (prey ATXN2, peptide TLNPNAKEFNPRSFSQ, A = wild type) is 0.
For “TLNPNAKEFNPRSFSQ R12F (TLNPNAKEFNPFSFSQ)”, the “DMS-derived PSSM value, position R12” value (prey ATXN2, peptide TLNPNAKEFNPRSFSQ, R = wild type) was found to be 0.03143.
With TLNPNAKEFNPRSFSQ N5Y (TLNPYAKEFNPRSFSQ), the “DMS-derived PSSM value, position N5” value (prey ATXN2, peptide TLNPNAKEFNPRSFSQ) is recorded as 0.002973.
Regarding KSTLNPNAKEFNPRSF P6N (KSTLNNNAKEFNPRSF), the “DMS-derived PSSM value, position P6” value under setting [2] came out at 0.
With KSTLNPNAKEFNPRSF N7Q (KSTLNPQAKEFNPRSF), under setting [3], the “DMS-derived PSSM value, position N7” value was determined as 0.04334.
As to “TLNPNAKEFNPRSFSQ S15L (TLNPNAKEFNPRSFLQ)”, under setting [7], the “DMS-derived PSSM value, position S15” value stood at 0.001672.
On to KSTLNPNAKEFNPRSF T3V (KSVLNPNAKEFNPRSF), for which the “DMS-derived PSSM value, position T3” value (prey ATXN2, peptide KSTLNPNAKEFNPRSF, T = wild type) is 0.2131.
For the substance “TLNPNAKEFNPRSFSQ S13E (TLNPNAKEFNPREFSQ)”, under setting [7], the “DMS-derived PSSM value, position S13” value is 0.006231.
For KSTLNPNAKEFNPRSF A8R (KSTLNPNRKEFNPRSF), the “DMS-derived PSSM value, position A8” value under setting [5] stood at 0.
With “KSTLNPNAKEFNPRSF N12V (KSTLNPNAKEFVPRSF)”, the “DMS-derived PSSM value, position N12” value under setting [3] is listed as 0.2093.
As to TLNPNAKEFNPRSFSQ K7S (TLNPNASEFNPRSFSQ), the “DMS-derived PSSM value, position K7” value under setting [6] is listed as 0.01353.
For the substance “TLNPNAKEFNPRSFSQ P11H (TLNPNAKEFNHRSFSQ)”, the “DMS-derived PSSM value, position P11” value (prey ATXN2, peptide TLNPNAKEFNPRSFSQ, P = wild type) stood at 0.157.
For “TLNPNAKEFNPRSF(averaged) P11W (TLNPNAKEFNWRSF)”, the “DMS-derived PSSM value (averaged), position P11” value (prey ATXN2, TLNPNAKEFNPRSF(averaged) over the two overlapping peptides, P = wild type) is on record as 0.01933.
Regarding KSTLNPNAKEFNPRSF S2A (KATLNPNAKEFNPRSF), the “DMS-derived PSSM value, position S2” value (prey ATXN2, peptide KSTLNPNAKEFNPRSF, S = wild type) is 0.03999.
Consider TLNPNAKEFNPRSFSQ K7G (TLNPNAGEFNPRSFSQ), for which the “DMS-derived PSSM value, position K7” value under setting [6] was found to be 0.01102.
With “KSTLNPNAKEFNPRSF E10A (KSTLNPNAKAFNPRSF)”, the “DMS-derived PSSM value, position E10” value under setting [3] amounted to 0.002857.
For the substance “TLNPNAKEFNPRSF(averaged) L2R (TRNPNAKEFNPRSF)”, for the setting “prey ATXN2, TLNPNAKEFNPRSF(averaged) over the two overlapping peptides, L = wild type”, the “DMS-derived PSSM value (averaged), position L2” value is given as 0.
In the case of KSTLNPNAKEFNPRSF N7M (KSTLNPMAKEFNPRSF), the “DMS-derived PSSM value, position N7” value under setting [3] worked out at 0.02788.
In the case of TLNPNAKEFNPRSFSQ F9I (TLNPNAKEINPRSFSQ), the “DMS-derived PSSM value, position F9” value under setting [4] is 0.
Regarding “KSTLNPNAKEFNPRSF E10I (KSTLNPNAKIFNPRSF)”, the “DMS-derived PSSM value, position E10” value under setting [3] stood at 0.

(Values after article PMC12102759 (Protein Science : A Publication of the Protein Society, 2025).)
